Paper PMC6858373 (Scientific Reports, 2019)
Read-outs that look alike come from different tables or passages of the source.

Assays:
[1] = molecular target: full-length P. pyralis luciferase (Photinus pyralis, UniProt P08659, K549A/L550V/N119G/N50D/S548I); assay type: cell-based
[2] = molecular target: T1, FGF14:Nav1.6 C-tail complex (Homo sapiens, UniProt Q92915+Q9UQD0); experiment: Split-luciferase complementation assay (LCA) in Clone V double stable HEK293 cells; assay type: cell-based; settings: for Z-score (LCA primary screening): 30 µM, average of primary screening (n = 2), vs on-plate 0.3% DMSO; for Z-score (LCA primary screening) / EMax (% Luminescence) / IMin (% Luminescence): 384-well; for EMax (% Luminescence): agonists; for EMax (% Luminescence) / IMin (% Luminescence): normalized to DMSO; for EC50: read-out: EC50; for IMin (% Luminescence): antagonists
T1 construct: polymerase chain reaction (PCR) amplification of the FGF14 open reading frame (nt 1–855); C-terminal fragment of Nav1.6 (amino acids 1763–1976) fused with CD4ΔC-tail (amino acids 1–395); expressed in transfected cells

[3] = CC_NCI screening, normalized to on-plate 0.3% DMSO controls
[4] = estimated, 8-point dose response 0.25-30 µM, n = 4 per concentration, library compounds
[5] = CC_NCI screening, full-length luciferase counter-screen luminescence, normalized to on-plate 0.3% DMSO controls
[6] = CC_NCI screening, full-length luciferase counter-screen, normalized to on-plate 0.3% DMSO controls
[7] = CC_NCI screening, LCA luminescence, biological replicate Set 1, normalized to on-plate 0.3% DMSO controls (n=16 per plate)
[8] = CC_NCI screening, LCA luminescence, biological replicate Set 2, normalized to on-plate 0.3% DMSO controls (n=16 per plate)
[9] = CC_NCI screening, LCA, biological replicate Set 1, normalized to on-plate 0.3% DMSO controls
[10] = CC_NCI screening, LCA, biological replicate Set 2, normalized to on-plate 0.3% DMSO controls
[11] = CC_NCI screening, average of Set 1 and Set 2, normalized to 0.3% DMSO controls
[12] = CC_NCI screening, biological replicate Set 1, normalized to on-plate 0.3% DMSO controls
[13] = CC_NCI screening, biological replicate Set 1, normalized to on-plate 0.3% DMSO controls (n=16 per plate)
[14] = CC_NCI screening, biological replicate Set 2, normalized to on-plate 0.3% DMSO controls
[15] = CC_NCI screening, biological replicate Set 2, normalized to on-plate 0.3% DMSO controls (n=16 per plate)
[16] = average of Set 1 and Set 2, normalized to 0.3% DMSO controls
[17] = estimated, 8-point dose response 0.25-30 µM, n = 4 per concentration, library compounds, read-out: IC50

Sequence of full-length P. pyralis luciferase (P08659 whole entry N50D/N119G/S548I/K549A/L550V, looked up): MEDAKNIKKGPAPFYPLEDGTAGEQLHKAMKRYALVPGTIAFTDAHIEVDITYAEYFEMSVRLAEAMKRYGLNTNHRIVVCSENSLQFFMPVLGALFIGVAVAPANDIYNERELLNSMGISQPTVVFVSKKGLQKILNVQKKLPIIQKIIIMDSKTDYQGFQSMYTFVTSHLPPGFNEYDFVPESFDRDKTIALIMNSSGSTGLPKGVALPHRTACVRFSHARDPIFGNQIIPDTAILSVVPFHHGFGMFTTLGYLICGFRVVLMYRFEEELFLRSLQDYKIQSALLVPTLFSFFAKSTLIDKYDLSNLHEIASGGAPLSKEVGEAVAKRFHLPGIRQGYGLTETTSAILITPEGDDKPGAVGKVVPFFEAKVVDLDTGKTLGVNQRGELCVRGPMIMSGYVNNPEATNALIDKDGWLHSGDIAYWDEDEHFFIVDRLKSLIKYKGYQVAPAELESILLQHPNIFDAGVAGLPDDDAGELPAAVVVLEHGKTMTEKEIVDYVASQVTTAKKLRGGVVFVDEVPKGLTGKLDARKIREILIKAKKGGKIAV
T1 sequence (Q92915 1-252 isoform Q92915-2): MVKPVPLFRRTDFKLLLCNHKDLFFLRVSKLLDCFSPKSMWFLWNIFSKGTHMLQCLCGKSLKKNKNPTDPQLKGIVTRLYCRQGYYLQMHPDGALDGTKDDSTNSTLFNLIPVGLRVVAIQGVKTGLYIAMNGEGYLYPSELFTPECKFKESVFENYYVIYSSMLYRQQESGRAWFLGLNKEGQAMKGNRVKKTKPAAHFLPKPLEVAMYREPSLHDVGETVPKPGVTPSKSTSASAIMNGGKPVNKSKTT
T1 sequence (Q9UQD0 1763-1976 limits assumed): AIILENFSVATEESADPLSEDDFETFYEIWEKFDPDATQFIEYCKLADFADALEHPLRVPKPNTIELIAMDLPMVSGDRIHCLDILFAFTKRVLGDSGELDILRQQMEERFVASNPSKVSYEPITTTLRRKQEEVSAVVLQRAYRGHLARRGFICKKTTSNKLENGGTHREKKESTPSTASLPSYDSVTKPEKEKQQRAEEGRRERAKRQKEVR

CS(=O)(=O)N1CCN(Cc2cc3nc(-c4cccc5[nH]ncc45)nc(N4CCOCC4)c3s2)CC1 [GDC 0941]
Luciferase Assay % Lum (full-length luciferase counter-screen) [1, 3]: 84.36% | Luciferase Assay Z-score (full-length luciferase counter-screen) [1, 3]: -2.00

CCC1=C[C@@H]2CN(C1)Cc1c([nH]c3ccccc13)[C@@](C(=O)OC)(c1cc3c(cc1OC)N(C)[C@H]1[C@@](O)(C(=O)OC)[C@H](OC(C)=O)[C@]4(CC)C=CCN5CC[C@]31[C@@H]54)C2 [Vinorelbine, reference compound]
Z-score (LCA primary screening) [2]: 8.79 | EMax (% Luminescence) ([2]; Clone V cells): 208.53 % Luminescence | EC50 [2, 4]: 1550 nM

CCc1c2c(nc3ccc(OC(=O)N4CCC(N5CCCCC5)CC4)cc13)-c1cc3c(c(=O)n1C2)COC(=O)[C@]3(O)CC.Cl [Irinotecan hydrochloride]
Luciferase Assay % Lum [1, 5]: 96.04% | Luciferase Assay Z-score [1, 6]: -0.51

Oc1ncc(N(CCCl)CCCl)c(O)n1 [Uracil mustard]
Split Luciferase Assay % Lum Set 1 [2]: 76.42% | Split Luciferase Assay %Lum Avg [2]: 74.62% | Split Luciferase Assay %Lum Set 2 [2]: 72.82% | Split Luciferase Assay Z-score Set 1 [2]: -1.91 | Split Luciferase Assay Z-score Set 2 [2]: -2.21 | Luciferase Assay % Lum [1]: 97.98% | Luciferase Assay Z-score [1]: -0.26

NC(=O)c1ccc2nc(-c3ccc(Oc4ccc(Cl)cc4)cc3)[nH]c2c1 [CHK2 INHIBITOR II]
Toxicity Assay % Fluor (CTB cell viability fluorescence) (Clone V cells): 112.91% | Toxicity Assay Z-score (CTB cell viability) (Clone V cells): 1.80

Cc1ccc(NC(=O)c2ccc(CN3CCN(C)CC3)cc2)cc1Nc1nccc(-c2cccnc2)n1 [Imatinib]
Luciferase Assay % Lum [1]: 90.17% | Luciferase Assay Z-score [1]: -1.26

COc1cc2c(N3CCN(C(=O)Nc4ccc(OC(C)C)cc4)CC3)ncnc2cc1OCCCN1CCCCC1 [TANDUTINIB]
Split Luciferase Assay % Lum Set 1 [2, 7]: 92.73% | Split Luciferase Assay %Lum Set 2 [2, 8]: 92.59% | Split Luciferase Assay Z-score Set 1 [2, 9]: -0.59 | Split Luciferase Assay Z-score Set 2 [2, 10]: -0.60 | Split Luciferase Assay %Lum Avg [2, 11]: 92.66% | Luciferase Assay % Lum [1, 5]: 88.98% | Luciferase Assay Z-score [1, 6]: -1.41

Plicamycin
Split Luciferase Assay Z-score Set 1 [2, 12]: -1.20 | Split Luciferase Assay % Lum Set 1 [2, 13]: 85.12% | Split Luciferase Assay Z-score Set 2 [2, 14]: -1.11 | Split Luciferase Assay %Lum Set 2 [2, 15]: 86.35% | Split Luciferase Assay %Lum Avg [2, 16]: 85.73% | Luciferase Assay % Lum (full-length luciferase counter-screen) [1, 3]: 92.59% | Luciferase Assay Z-score (full-length luciferase counter-screen) [1, 3]: -0.95

CC[C@]1(O)C[C@@H]2CN(CCc3c([nH]c4ccccc34)[C@@](C(=O)OC)(c3cc4c(cc3OC)N(C)[C@H]3[C@@](O)(C(=O)OC)[C@H](OC(C)=O)[C@]5(CC)C=CCN6CC[C@]43[C@@H]65)C2)C1 [Vinblastine, reference compound]
Z-score (LCA primary screening) [2]: 7.42 | EMax (% Luminescence) ([2]; Clone V cells): 191.58 % Luminescence | EC50 [2, 4]: 20600 nM

CCn1c(-c2nonc2N)nc2cnc(Oc3cccc(NC(=O)c4ccc(OCCN5CCOCC5)cc4)c3)cc21 [GSK 269962 A, reference compound]
Z-score (LCA primary screening) [2]: −5.77 | IMin (% Luminescence) ([2]; Clone V cells): 28.81 % Luminescence | IC50 [2, 17]: 24.7 µM

CCN(CC)CCNC(=O)c1c(C)[nH]c(/C=C2\C(=O)Nc3ccc(F)cc32)c1C [Sunitinib]
Split Luciferase Assay % Lum Set 1 [2, 7]: 68.81% | Split Luciferase Assay %Lum Set 2 [2, 8]: 72.82% | Split Luciferase Assay Z-score Set 1 [2, 9]: -2.52 | Split Luciferase Assay Z-score Set 2 [2, 10]: -2.21 | Split Luciferase Assay %Lum Avg [2, 11]: 70.82% | Luciferase Assay % Lum [1, 5]: 95.10% | Luciferase Assay Z-score [1, 6]: -0.63

CNC(=O)c1cc(Oc2ccc(NC(=O)Nc3ccc(Cl)c(C(F)(F)F)c3)cc2)ccn1 [Sorafenib, reference compound]
Z-score (LCA primary screening) [2]: −7.62 | Split Luciferase Assay % Lum Set 1 [2, 7]: 5.76% | Split Luciferase Assay % Lum Set 1 ([2]; CC_NCI screening, LCA luminescence, biological replicate Set 1, normalized to on-plate 0.3% DMSO controls (n=16 per plate), listed as SORAFENIB): 4.67% | Split Luciferase Assay %Lum Set 2 [2, 8]: 15.60% | Split Luciferase Assay %Lum Set 2 ([2]; CC_NCI screening, LCA luminescence, biological replicate Set 2, normalized to on-plate 0.3% DMSO controls (n=16 per plate), listed as SORAFENIB): 7.28% | Split Luciferase Assay Z-score Set 1 [2, 9]: -7.62 | Split Luciferase Assay Z-score Set 1 ([2]; CC_NCI screening, LCA, biological replicate Set 1, normalized to on-plate 0.3% DMSO controls, listed as SORAFENIB): -7.70 | Split Luciferase Assay Z-score Set 2 [2, 10]: -6.87 | Split Luciferase Assay Z-score Set 2 ([2]; CC_NCI screening, LCA, biological replicate Set 2, normalized to on-plate 0.3% DMSO controls, listed as SORAFENIB): -7.54 | Split Luciferase Assay %Lum Avg [2, 11]: 10.68% | Split Luciferase Assay %Lum Avg ([2]; CC_NCI screening, average of Set 1 and Set 2, normalized to 0.3% DMSO controls, listed as SORAFENIB): 5.98% | IMin (% Luminescence) ([2]; Clone V cells): 5.98 % Luminescence | IC50 [2, 17]: 3.98 µM | Luciferase Assay % Lum [1, 5]: 88.55% | Luciferase Assay % Lum ([1]; CC_NCI screening, full-length luciferase counter-screen luminescence, normalized to on-plate 0.3% DMSO controls, listed as SORAFENIB): 91.34% | Luciferase Assay Z-score [1, 6]: -1.47 | Luciferase Assay Z-score ([1]; CC_NCI screening, full-length luciferase counter-screen, normalized to on-plate 0.3% DMSO controls, listed as SORAFENIB): -1.11

O=c1cc(N2CCOCC2)nc2c3ccccc3ccn12 [COMPOUND 401]
Split Luciferase Assay Z-score Set 1 [2, 12]: -0.15 | Split Luciferase Assay % Lum Set 1 [2, 13]: 98.17% | Split Luciferase Assay Z-score Set 2 [2, 14]: -0.43 | Split Luciferase Assay %Lum Set 2 [2, 15]: 94.67% | Split Luciferase Assay %Lum Avg [2, 16]: 96.42% | Luciferase Assay % Lum (full-length luciferase counter-screen) [1, 3]: 93.50% | Luciferase Assay Z-score (full-length luciferase counter-screen) [1, 3]: -0.83

CC[C@]1(O)C[C@H]2CN(CCc3c([nH]c4ccccc34)[C@@](C(=O)OC)(c3cc4c(cc3OC)N(C=O)[C@H]3[C@@](O)(C(=O)OC)[C@H](OC(C)=O)[C@]5(CC)C=CCN6CC[C@]43[C@@H]65)C2)C1 [Vincristine, reference compound]
Z-score (LCA primary screening) [2]: 7.99 | EMax (% Luminescence) ([2]; Clone V cells): 198.49 % Luminescence | EC50 [2, 4]: 270 nM

N.N.[Cl][Pt][Cl] [Cisplatin]
Split Luciferase Assay % Lum Set 1 [2, 7]: 89.47% | Split Luciferase Assay %Lum Set 2 [2, 8]: 98.83% | Split Luciferase Assay Z-score Set 1 [2, 9]: -0.85 | Split Luciferase Assay Z-score Set 2 [2, 10]: -0.10 | Split Luciferase Assay %Lum Avg [2, 11]: 94.15% | Luciferase Assay % Lum [1, 5]: 99.37% | Luciferase Assay Z-score [1, 6]: -0.08

O=C(NOC[C@H](O)CO)c1ccc(F)c(F)c1Nc1ccc(I)cc1F [PD 0325901]
Toxicity Assay % Fluor (Clone V cells; human, 16 h, 30 µM): 83.92% | Toxicity Assay Z-score (Clone V cells; human, 16 h, 30 µM): -2.25

O=[N+]([O-])/C=C/c1ccc2c(c1)OCO2 [MNS, reference compound]
IC50 ([2]; 384-well plates, range 0.625 - 25 μM, n=16 per concentration (Supplementary Fig. S1A), read-out: Estimated IC50): 13.3 µM | % luminescence (normalized mean and SD) ([2]; MNS 30 µM, Clone V cells, 96-well plates): 10.8% ± 3.1% | IC50 ([2]; cell density 1 × 10^4 cells per 384-well, 8 concentrations 0.625-30 µM, read-out: IC50): 3.96 µM | IC50 ([2]; cell density 2 × 10^4 cells per 384-well, 8 concentrations 0.625-30 µM, read-out: IC50): 7.49 µM | IC50 ([2]; cell density 3 × 10^4 cells per 384-well, 8 concentrations 0.625-30 µM, read-out: IC50): 9.82 µM | IC50 ([2]; cell density 4 × 10^4 cells per 384-well, 8 concentrations 0.625-30 µM, read-out: IC50): 13.3 µM | % maximal luminescence, full-length luciferase (normalized mean and SD) ([1]; MNS 30 µM, 96-well plates): 96.8% ± 2.8%
